From publication PMC11783601, “Analogue-Sensitive Inhibition of Histone Demethylases Uncovers Member-Specific Function in Ribosomal Protein Synthesis” (Journal of the American Chemical Society, 2025)

Target: T1, asKDM4A (HA-tagged F185A) in HEK293T cells (Homo sapiens, UniProt O75164, F185A)
T1 construct: we generated the F185A mutation in full-length KDM4A carrying all of the functional domains; host or cells: HEK293T
T1 sequence (O75164 1-1064 F185A): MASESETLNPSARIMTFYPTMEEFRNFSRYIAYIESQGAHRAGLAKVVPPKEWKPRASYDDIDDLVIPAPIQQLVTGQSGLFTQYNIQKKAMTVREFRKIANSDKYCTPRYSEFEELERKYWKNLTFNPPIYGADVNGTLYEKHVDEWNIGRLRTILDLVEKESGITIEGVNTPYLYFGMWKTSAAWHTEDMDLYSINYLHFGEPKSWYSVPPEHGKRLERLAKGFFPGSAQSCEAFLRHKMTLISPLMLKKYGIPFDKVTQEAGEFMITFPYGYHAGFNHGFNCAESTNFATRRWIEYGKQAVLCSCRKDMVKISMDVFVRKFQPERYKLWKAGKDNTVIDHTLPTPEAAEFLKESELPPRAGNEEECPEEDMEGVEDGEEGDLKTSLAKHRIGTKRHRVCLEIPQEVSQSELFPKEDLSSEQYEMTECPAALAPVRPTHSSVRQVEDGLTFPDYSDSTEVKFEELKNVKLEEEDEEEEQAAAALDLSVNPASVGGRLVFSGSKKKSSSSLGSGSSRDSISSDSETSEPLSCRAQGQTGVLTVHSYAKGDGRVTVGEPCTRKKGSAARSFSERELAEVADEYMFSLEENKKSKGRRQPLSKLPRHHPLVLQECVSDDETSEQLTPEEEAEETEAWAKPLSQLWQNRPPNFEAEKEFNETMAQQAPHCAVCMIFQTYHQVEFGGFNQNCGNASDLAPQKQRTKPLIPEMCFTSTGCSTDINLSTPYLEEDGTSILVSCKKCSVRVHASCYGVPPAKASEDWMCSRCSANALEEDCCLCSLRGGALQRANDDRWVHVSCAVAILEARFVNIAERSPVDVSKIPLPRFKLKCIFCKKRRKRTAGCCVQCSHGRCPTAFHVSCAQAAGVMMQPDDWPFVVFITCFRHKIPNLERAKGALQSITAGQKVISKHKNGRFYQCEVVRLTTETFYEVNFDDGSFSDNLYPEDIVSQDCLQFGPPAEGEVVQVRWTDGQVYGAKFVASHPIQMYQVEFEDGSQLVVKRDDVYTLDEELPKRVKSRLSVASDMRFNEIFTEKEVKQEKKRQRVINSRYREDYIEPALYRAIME
Assay: Time-dependent treatment and withdrawal of inhibitor, fixed cell imaging of H3K9me3 and BrdU
Format: cell-based
Description: We exploited the reversible mode of action of the allele-specific inhibitor to gain further insights into the temporal regulation of rRNA expression by histone demethylation. We reasoned that withdrawal of the reversible inhibitor from the cell-culture medium would restore the activity of asKDM4A in a temporally defined manner (Figure 8A). HEK293T cells expressing the F185A variant carrying an HA tag were treated with 6B and fixed at various time points. H3K9me3 levels were quantified in HA-positive cells to ensure that only cells with asKDM4A were considered for analysis. Within 3 h of compound treatment, a robust level of H3K9me3 ensued (Figure 8B). Subsequently, the same cells were allowed to grow in inhibitor-free media and examined for histone demethylation by fixed cell imaging.
To investigate if the restoration of H3K9me3 demethylation is directly linked to rRNA activation, cells overexpressing asKDM4A were first treated with 6B for 3 h followed by compound removal and brief exposure to 5FU before being fixed at different time points for immunofluorescence imaging (Figure 8A,C). […] We recorded a steady recovery of BrdU signal, reaching its maximum within 4–5 h postwithdrawal (equivalent to no 6B treatment) (Figure 8C), consistent with reactivation of asKDM4A as observed above. A relatively sluggish 5FU incorporation into rRNA (Figure 8C), compared to the rapid histone demethylation (Figure 8B), is likely due to the time required to assemble active transcriptional machinery at the rRNA promoters following the removal of the silencing H3K9me3 mark. Achieving such precise temporal control of protein function would be challenging using genetic tools. Collectively, employing the mutant and cognate inhibitor pair, we mapped a highly dynamic signaling pathway linking KDM4A-mediated locus-specific histone demethylation with upregulation of rRNA expression to modulate downstream processes such as ribosomal assembly and protein synthesis. […]
19. Fixed cell immunofluorescence staining
Cells were grown on poly-D-lysine (Gibco A3890401) treated glass coverslips (ThermoScientific 12-545-81P) overnight and transfected the next day with 300 ng KDM4A WT/F185A using […] of lipofectamine 2000 (Invitrogen 11668019). The cells were incubated overnight and treated with indicated inhibitor at varying time points. When probing rRNA transcription, cells were incubated with 2 mM 5-Fluorouridine (Sigma F5130) for 15 minutes. Cells were washed three times with phosphate buffered saline (PBS) at pH 7.6 (Corning 21040CV), fixed with 2% paraformaldehyde in PBS (ThermoFisher AAJ19943K2) for 15 minutes at room temperature, washed with PBS three times, and permeabilized with 0.1% tritonX (Fisher BP151-100) in PBS for 15 minutes. Next, coverslips were blocked with 2% Bovine Serum Albumin (BSA Fisher BP1600-100) in PBS for 1 hour at room temperature, coverslips were incubated with primary antibody diluted in 0.5% BSA PBS (anti-H3K9me3: Cell Signaling Technology cat: 13969S host:rabbit 1:1000; anti-HA: Cell Signaling Technology host:mouse, cat: 2367S or host:rabbit, cat: […]
hour at room temperature, then incubated with secondary antibodies diluted in 0.5% BSA PBS (anti-mouse—488: Invitrogen host: goat, cat: A-11001 or anti-rabbit—cy3: Invitrogen host: goat, […]
cat: A10520, both dilutions 1:1000), between each step coverslips were washed five times with 0.5% BSA PBS. The nuclei were stained with Hoechst stain 0.01 mg/mL in H2O (Sigma B2883-25MG) for 30 seconds, washed with PBS and finally adhered to a slide with gelvatol. The cells were imaged at University of Pittsburgh Center for Biological Imaging on an Olympus Fluoview […]
20. Quantification of fixed-cell imaging data
TIF images obtained from confocal microscopy experiments were quantified in ImageJ. Images were converted to 8-bit images and then thresholded to remove background signal. All images within the same experiment used the same threshold values. For concentration dependent imaging […]

[1] = HEK293T cells expressing KDM4A-F185A, 6B for 3 h then withdrawal

## CC(C)CC(NC(=O)C(=O)OCc1cccc(C(F)(F)F)c1)C(=O)O [6B, L-Leu TFMB-ester NOG]
HA-positive HEK293T cells expressing F185A
  time of compound treatment until a robust level of H3K9me3 ensued: up to 3 h
[1]
  5FU incorporation after compound withdrawal: gradual increase in 5FU incorporation
  H3K9me3 after compound withdrawal: rapid H3K9me3 demethylation
After 3 h 6B treatment and removal, equivalent to no 6B treatment
  time postwithdrawal until BrdU signal reached its maximum: 4 to 5 h
Cells overexpressing asKDM4A treated with 6B for 3 h
  BrdU signal (5FU incorporation): significant decrease in BrdU signal
inhibitor-free media, activity increased for up to 3 h
  time after compound removal until asKDM4A regained its demethylase activity: ≤ 1 h
